Key:
rat [1] = conditions: Multigenerational reproductive toxicity study, sprague dawley, Oral, Water, dose end: 2 generation
rat [2] = conditions: Carcinogenicity, wistar, Oral, Water, dose end: 24 month, group: systemic
rat [3] = conditions: Prenatal developmental toxicity study, wistar, Oral, Gavage/Intubation, dose end: 15 GD
rat [4] = conditions: Subchronic inhalation toxicity, fischer, Whole-Body, dose end: 13 week, group: systemic
rat [5] = conditions: Chronic toxicity, wistar, Oral, Water, dose end: 12 month, group: systemic
rat [6] = conditions: Subchronic dermal toxicity, sprague dawley, Topical, dose end: 90 day, group: systemic, systemic / pathology gross / skin / scabbing + systemic / pathology microscopic / skin / acanthosis + systemic / pathology microscopic / …
rat [7] = conditions: Combined chronic toxicity/carcinogenicity, fischer, Oral, Water, dose end: 104 week, group: systemic
rabbit = conditions: Prenatal developmental toxicity study, himalayan, Oral, Gavage/Intubation, dose end: 19 GD
[8] = group: offspring, systemic / in life observation / body weight / offspring (pup) weight
[9] = group: parental, systemic / in life observation / food consumption / food consumption
[10] = group: parental, systemic / in life observation / food consumption / food consumption + systemic / pathology gross / lymph node / enlarged + systemic / …
[11] = systemic / in life observation / water consumption / water consumption
[12] = group: developmental, systemic / in life observation / body weight / fetal weight
[13] = group: maternal, systemic / in life observation / body weight / body weight gain + systemic / in life observation / clinical signs / piloerection + systemic…
[14] = group: maternal, systemic / in life observation / clinical signs / piloerection
[15] = systemic / pathology microscopic / nose / [other] + systemic / pathology microscopic / nose / hyperplasia + systemic / pathology microscopic…
[16] = systemic / in life observation / body weight / body weight gain + systemic / pathology gross / stomach / erosion + systemic / pathology …
[17] = systemic / organ weight / kidney / relative to body weight + systemic / in life observation / clinical signs / urine staining - perineum + …
[18] = systemic / organ weight / kidney / relative to body weight + systemic / pathology gross / stomach / [other] + systemic / clinical chemistry…
[19] = group: maternal, systemic / in life observation / body weight / body weight + systemic / in life observation / body weight / body weight gain + systemic / in…

Structure (SMILES): O=CCCCC=O [Glutaraldehyde]
- NEL (rat [1]; [8]): 20.9 mg/kg/day
- NOAEL (rat [1]; [8]): 20.9 mg/kg/day
- LEL (rat [1]; [9]): 19.5 mg/kg/day
- LOAEL (rat [1]; [9]): 19.5 mg/kg/day
- NEL (rat [1]; [10]): 4.25 mg/kg/day
- NOAEL (rat [1]; [10]): 4.25 mg/kg/day
- LEL (rat [2]; [11]): 5.3 mg/kg/day
- NEL (rat [2]; [11]): < 5.3 mg/kg/day
- LOAEL (rat [2]; systemic / pathology microscopic / larynx / metaplasia): 61 mg/kg/day
- NOAEL (rat [2]; systemic / pathology microscopic / larynx / metaplasia + systemic / in life observation / body weight / body weight + systemic / in life …): 16.1 mg/kg/day
- LEL (rat [3]; [12]): 100 mg/kg/day
- LOAEL (rat [3]; [12]): > 100 mg/kg/day
- NEL (rat [3]; [12]): 50 mg/kg/day
- NOAEL (rat [3]; [12]): ≥ 100 mg/kg/day
- LOAEL (rat [3]; [13]): > 100 mg/kg/day
- NOAEL (rat [3]; [13]): ≥ 100 mg/kg/day
- LEL (rat [3]; [14]): 25 mg/kg/day
- NEL (rat [3]; [14]): < 25 mg/kg/day
- LEL (rat [4]; systemic / hematology / neutrophils / neutrophils): 0.125 ppm
- NEL (rat [4]; systemic / hematology / neutrophils / neutrophils + systemic / clinical chemistry / alanine aminotransferase (alt/sgpt) / alanine …): 0.0625 ppm
- LOAEL (rat [4]; [15]): 0.25 ppm
- NOAEL (rat [4]; [15]): 0.125 ppm
- LOAEL (rat [5]; [16]): 58.9 mg/kg/day
- NOAEL (rat [5]; [16]): 15.4 mg/kg/day
- LEL (rat [5]; systemic / pathology gross / pituitary gland / enlarged): 23.2 mg/kg/day
- NEL (rat [5]; systemic / pathology gross / pituitary gland / enlarged + systemic / in life observation / clinical signs / abnormal respiratory sounds + …): 4.8 mg/kg/day
- LEL (rat [6]): 50 mg/kg/day
- LOAEL (rat [6]): 50 mg/kg/day
- NEL (rat [6]): < 50 mg/kg/day
- NOAEL (rat [6]): < 50 mg/kg/day
- LEL (rat [7]; [17]): 4 mg/kg/day
- NEL (rat [7]; [17]): < 4 mg/kg/day
- LOAEL (rat [7]; [18]): > 64 mg/kg/day
- NOAEL (rat [7]; [18]): ≥ 64 mg/kg/day
- LEL (rabbit; [12]): 45 mg/kg/day
- LOAEL (rabbit; [12]): 45 mg/kg/day
- NEL (rabbit; [12]): 15 mg/kg/day
- NOAEL (rabbit; [12]): 15 mg/kg/day
- LEL (rabbit; [19]): 45 mg/kg/day
- LOAEL (rabbit; [19]): 45 mg/kg/day
- NEL (rabbit; [19]): 15 mg/kg/day
- NOAEL (rabbit; [19]): 15 mg/kg/day

From EPA's ToxRefDB 2
